Assay results from ChEMBL document CHEMBL1909046, “DrugMatrix in vitro pharmacology data”.

Assays:
[1] = target: 5-hydroxytryptamine receptor 4 (Cavia porcellus, UniProt O70528); type: cell membranes, Dunkin-Hartley, Striatum, Membrane; further: in other assays of this panel Not Active means under 50% inhibition at 10 µM
Vasopressin V1a receptor = Vasopressin V1a receptor (Homo sapiens, UniProt P37288); type: cell membranes, Membrane; conditions: hek293; further: in other assays of this panel Not Active means under 50% inhibition at 10 µM
Vasopressin V1a receptor, sequence (P37288 whole entry): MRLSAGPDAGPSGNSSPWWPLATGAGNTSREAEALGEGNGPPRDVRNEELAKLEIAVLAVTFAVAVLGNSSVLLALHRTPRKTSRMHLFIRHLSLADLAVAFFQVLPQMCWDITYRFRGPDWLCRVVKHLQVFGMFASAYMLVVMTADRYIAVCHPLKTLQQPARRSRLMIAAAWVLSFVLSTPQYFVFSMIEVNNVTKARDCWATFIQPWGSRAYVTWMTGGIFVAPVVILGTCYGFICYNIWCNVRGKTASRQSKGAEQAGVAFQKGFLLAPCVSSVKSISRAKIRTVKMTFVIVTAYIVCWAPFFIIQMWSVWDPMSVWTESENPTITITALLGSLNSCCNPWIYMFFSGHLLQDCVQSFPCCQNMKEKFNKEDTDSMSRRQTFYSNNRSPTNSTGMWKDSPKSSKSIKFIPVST

[2] = DRUGMATRIX: GABAA, Chloride Channel, TBOB radioligand binding (ligand: [3H] TBOB); type: cell membranes, Rattus norvegicus, Wistar, Cerebral cortex, Membrane; conditions: Not Active = under 50% inhibition at 10 µM
[3] = target: T1, Cysteinyl leukotriene receptor 1 (Homo sapiens, UniProt Q9Y271); type: cell membranes, Membrane; conditions: cho-k1; further: in other assays of this panel Not Active means under 50% inhibition at 10 µM
T1 sequence (Q9Y271 whole entry): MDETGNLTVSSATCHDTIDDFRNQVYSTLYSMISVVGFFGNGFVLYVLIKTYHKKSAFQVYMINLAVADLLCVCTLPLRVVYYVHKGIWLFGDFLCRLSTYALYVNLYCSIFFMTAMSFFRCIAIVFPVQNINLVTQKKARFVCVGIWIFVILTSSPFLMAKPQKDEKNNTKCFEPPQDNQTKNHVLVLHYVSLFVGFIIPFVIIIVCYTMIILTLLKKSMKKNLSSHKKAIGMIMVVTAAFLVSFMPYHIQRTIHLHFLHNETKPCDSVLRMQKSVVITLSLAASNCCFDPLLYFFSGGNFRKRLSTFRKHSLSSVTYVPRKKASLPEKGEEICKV

[4] = target: T2, Amine oxidase [flavin-containing] A (Homo sapiens, UniProt P21397); assay: DRUGMATRIX: Monoamine Oxidase MAO-A enzyme inhibition (substrate: Kynuramine); set-up: species or system BTI-TN-5B1-4; conditions: bti-tn-5b1-4; Not Active = under 50% inhibition at 10 µM
T2 sequence (P21397 whole entry): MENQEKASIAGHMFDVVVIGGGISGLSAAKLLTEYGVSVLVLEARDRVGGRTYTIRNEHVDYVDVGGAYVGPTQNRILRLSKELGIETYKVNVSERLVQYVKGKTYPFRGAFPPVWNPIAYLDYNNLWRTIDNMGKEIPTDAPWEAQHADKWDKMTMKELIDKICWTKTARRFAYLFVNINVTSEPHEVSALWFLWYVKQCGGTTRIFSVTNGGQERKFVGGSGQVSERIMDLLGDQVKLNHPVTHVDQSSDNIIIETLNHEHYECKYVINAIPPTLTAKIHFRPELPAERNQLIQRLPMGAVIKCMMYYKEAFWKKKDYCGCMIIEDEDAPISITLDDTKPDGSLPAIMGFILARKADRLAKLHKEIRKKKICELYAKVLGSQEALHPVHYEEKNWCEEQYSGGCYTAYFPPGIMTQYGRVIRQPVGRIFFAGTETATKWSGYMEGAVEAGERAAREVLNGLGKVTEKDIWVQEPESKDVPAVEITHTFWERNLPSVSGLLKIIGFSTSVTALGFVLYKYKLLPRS

Cathepsin G = target: T3, Cathepsin G (Homo sapiens, UniProt P08311); type: tissue-based; conditions: neutrophil;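 further: inhibition of Cathepsin G enzyme activity, tested on an AMC-conjugated peptide substrate; in other assays of this panel Not Active means under 50% inhibition at 10 µM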
T3 sequence (P08311 whole entry): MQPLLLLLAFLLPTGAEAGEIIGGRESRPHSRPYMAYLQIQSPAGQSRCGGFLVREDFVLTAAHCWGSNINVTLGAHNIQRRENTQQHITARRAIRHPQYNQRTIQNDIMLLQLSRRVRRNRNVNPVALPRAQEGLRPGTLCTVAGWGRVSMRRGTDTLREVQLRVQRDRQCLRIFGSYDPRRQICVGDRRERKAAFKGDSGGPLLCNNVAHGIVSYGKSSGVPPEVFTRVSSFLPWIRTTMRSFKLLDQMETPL

[5] = target: Tyrosine-protein kinase Fyn (Homo sapiens, UniProt P06241); assay: biochemical; type: cell-based, Insect cells; conditions: insect cells
Tyrosine-protein kinase Fyn, sequence (P06241 whole entry): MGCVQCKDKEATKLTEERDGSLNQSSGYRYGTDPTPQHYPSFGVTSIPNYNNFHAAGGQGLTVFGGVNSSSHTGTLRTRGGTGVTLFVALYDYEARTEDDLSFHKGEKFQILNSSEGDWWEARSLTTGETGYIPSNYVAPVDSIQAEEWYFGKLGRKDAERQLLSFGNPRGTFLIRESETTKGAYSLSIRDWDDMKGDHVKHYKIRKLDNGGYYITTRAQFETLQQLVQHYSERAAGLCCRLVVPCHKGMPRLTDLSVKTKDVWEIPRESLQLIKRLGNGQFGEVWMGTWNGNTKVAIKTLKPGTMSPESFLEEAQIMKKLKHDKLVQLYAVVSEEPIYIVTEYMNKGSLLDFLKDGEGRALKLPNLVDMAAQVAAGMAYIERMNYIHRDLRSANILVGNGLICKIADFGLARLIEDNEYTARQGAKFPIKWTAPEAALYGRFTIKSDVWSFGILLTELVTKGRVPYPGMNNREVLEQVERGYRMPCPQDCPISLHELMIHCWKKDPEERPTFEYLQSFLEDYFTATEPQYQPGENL

5-hydroxytryptamine receptor 4, sequence (O70528 whole entry): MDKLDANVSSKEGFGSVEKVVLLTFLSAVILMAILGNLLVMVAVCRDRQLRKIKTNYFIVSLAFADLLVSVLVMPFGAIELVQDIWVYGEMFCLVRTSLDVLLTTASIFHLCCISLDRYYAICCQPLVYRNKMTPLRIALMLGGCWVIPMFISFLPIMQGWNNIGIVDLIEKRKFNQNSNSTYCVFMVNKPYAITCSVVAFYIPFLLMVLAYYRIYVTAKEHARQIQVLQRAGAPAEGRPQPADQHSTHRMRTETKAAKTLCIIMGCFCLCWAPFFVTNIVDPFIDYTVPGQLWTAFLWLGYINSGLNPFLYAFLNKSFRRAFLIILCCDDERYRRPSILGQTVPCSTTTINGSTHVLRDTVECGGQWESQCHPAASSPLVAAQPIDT

NS(=O)(=O)c1cc(C2(O)NC(=O)c3ccccc32)ccc1Cl (stereo unspecified) [CHLORTHALIDONE]
Not Active: IC50 [1] | IC50 (Vasopressin V1a receptor) | IC50 [2] | Ki [2] | IC50 [3] | IC50 [4] | IC50 (Cathepsin G) | IC50 [5]

O=C(O)CC(O)(CC(=O)O)C(=O)O [CITRIC ACID]
Not Active: IC50 [1] | IC50 (Vasopressin V1a receptor) | IC50 [2] | Ki [2] | IC50 [3] | IC50 [4] | IC50 (Cathepsin G) | IC50 [5]

CC(C)NCC(O)c1ccccc1Cl (stereo unspecified) [CLORPRENALINE]
Not Active: IC50 [1] | IC50 (Vasopressin V1a receptor) | IC50 [2] | Ki [2] | IC50 [3] | IC50 [4] | IC50 (Cathepsin G) | IC50 [5]

CN1CCN(C(c2ccccc2)c2ccccc2)CC1 [CYCLIZINE]
Not Active: IC50 [1] | IC50 (Vasopressin V1a receptor) | IC50 [2] | Ki [2] | IC50 [3] | IC50 [4] | IC50 (Cathepsin G) | IC50 [5]

CN1C[C@@H]2C[C@H]1CN2c1cc2c(cc1F)c(=O)c(C(=O)O)cn2C1CC1 [DANOFLOXACIN]
Not Active: IC50 [1] | IC50 (Vasopressin V1a receptor) | IC50 [2] | Ki [2] | IC50 [3] | IC50 [4] | IC50 (Cathepsin G) | IC50 [5]

COc1cccc2c1C(=O)c1c(O)c3c(c(O)c1C2=O)C[C@@](O)(C(C)=O)C[C@@H]3O[C@H]1C[C@H](N)[C@H](O)[C@H](C)O1 [DAUNORUBICIN]
Not Active: IC50 [1] | IC50 (Vasopressin V1a receptor) | IC50 [2] | Ki [2] | IC50 [3] | IC50 [4] | IC50 (Cathepsin G) | IC50 [5]

O=C(O)c1cc(-c2ccc(F)cc2F)ccc1O [DIFLUNISAL]
Not Active: IC50 [1] | IC50 (Vasopressin V1a receptor) | IC50 [2] | Ki [2] | IC50 [3] | IC50 [4] | IC50 (Cathepsin G) | IC50 [5]

C[S+](C)[O-] [DIMETHYL SULFOXIDE]
Not Active: IC50 [1] | IC50 (Vasopressin V1a receptor) | IC50 [2] | Ki [2] | IC50 [3] | IC50 [4] | IC50 (Cathepsin G) | IC50 [5]

CC1=NN(c2ccccc2)C(=O)C1 [EDARAVONE]
Not Active: IC50 [1] | IC50 (Vasopressin V1a receptor) | IC50 [2] | Ki [2] | IC50 [3] | IC50 [4] | IC50 (Cathepsin G) | IC50 [5]

CC(C)C[C@H]1C(=O)N2CCC[C@H]2[C@]2(O)O[C@](NC(=O)[C@@H]3C=C4c5cccc6[nH]cc(c56)C[C@H]4N(C)C3)(C(C)C)C(=O)N12 [ERGOCRYPTINE]
Not Active: IC50 [1] | IC50 (Vasopressin V1a receptor) | IC50 [2] | Ki [2] | IC50 [3] | IC50 [4] | IC50 (Cathepsin G) | IC50 [5]

C[C@]12CC[C@@H]3c4ccc(O)cc4CC[C@H]3[C@@H]1C[C@@H](O)[C@@H]2O [ESTRIOL]
Not Active: IC50 [1] | IC50 (Vasopressin V1a receptor) | IC50 [2] | Ki [2] | IC50 [3] | IC50 [4] | IC50 (Cathepsin G) | IC50 [5]

C#C[C@]1(O)CC[C@H]2[C@@H]3CCC4=CC(=O)CC[C@]4(C)[C@H]3CC[C@@]21C [ETHISTERONE]
Not Active: IC50 [1] | IC50 (Vasopressin V1a receptor) | IC50 [2] | Ki [2] | IC50 [3] | IC50 [4] | IC50 (Cathepsin G) | IC50 [5]

CC(O)(P(=O)(O)O)P(=O)(O)O [ETIDRONIC ACID]
Not Active: IC50 [1] | IC50 (Vasopressin V1a receptor) | IC50 [2] | Ki [2] | IC50 [3] | IC50 [4] | IC50 (Cathepsin G) | IC50 [5]

CC(C)(C(=O)O)c1ccc(C(O)CCCN2CCC(C(O)(c3ccccc3)c3ccccc3)CC2)cc1 (stereo unspecified) [FEXOFENADINE]
Not Active: IC50 [1] | IC50 (Vasopressin V1a receptor) | IC50 [2] | Ki [2] | IC50 [3] | IC50 [4] | IC50 (Cathepsin G) | IC50 [5]

CN1CCN(c2c(F)cc3c(=O)c(C(=O)O)cn(CCF)c3c2F)CC1 [FLEROXACIN]
Not Active: IC50 [1] | IC50 (Vasopressin V1a receptor) | IC50 [2] | Ki [2] | IC50 [3] | IC50 [4] | IC50 (Cathepsin G) | IC50 [5]

O=c1[nH]c(=O)n([C@H]2C[C@H](O)[C@@H](CO)O2)cc1F [FLOXURIDINE]
Not Active: IC50 [1] | IC50 (Vasopressin V1a receptor) | IC50 [2] | Ki [2] | IC50 [3] | IC50 [4] | IC50 (Cathepsin G) | IC50 [5]

COC(=O)Nc1nc2cc(C(=O)c3ccc(F)cc3)ccc2[nH]1 [FLUBENDAZOLE]
Not Active: IC50 [1] | IC50 (Vasopressin V1a receptor) | IC50 [2] | Ki [2] | IC50 [3] | IC50 [4] | IC50 (Cathepsin G) | IC50 [5]

CC(=O)OCC(=O)[C@@]1(O)CC[C@H]2[C@@H]3CCC4=CC(=O)CC[C@]4(C)[C@@]3(F)[C@@H](O)C[C@@]21C [FLUDROCORTISONE ACETATE]
Not Active: IC50 [1] | IC50 (Vasopressin V1a receptor) | IC50 [2] | Ki [2] | IC50 [3] | IC50 [4] | IC50 (Cathepsin G) | IC50 [5]

CCOC(=O)c1ncn2c1CN(C)C(=O)c1cc(F)ccc1-2 [FLUMAZENIL]
Not Active: IC50 [1] | IC50 (Vasopressin V1a receptor) | IC50 [2] | Ki [2] | IC50 [3] | IC50 [4] | IC50 (Cathepsin G) | IC50 [5]

CC(=O)OCC(=O)[C@@]12OC(C)(C)O[C@@H]1C[C@H]1[C@@H]3C[C@H](F)C4=CC(=O)C=C[C@]4(C)[C@@]3(F)[C@@H](O)C[C@@]12C [FLUOCINONIDE]
Not Active: IC50 [1] | IC50 (Vasopressin V1a receptor) | IC50 [2] | Ki [2] | IC50 [3] | IC50 [4] | IC50 (Cathepsin G) | IC50 [5]

O=C(O)P(=O)(O)O [FOSCARNET]
Not Active: IC50 [1] | IC50 (Vasopressin V1a receptor) | IC50 [2] | Ki [2] | IC50 [3] | IC50 [4] | IC50 (Cathepsin G) | IC50 [5]

Cc1ccc(C)c(OCCCC(C)(C)C(=O)O)c1 [GEMFIBROZIL]
Not Active: IC50 [1] | IC50 (Vasopressin V1a receptor) | IC50 [2] | Ki [2] | IC50 [3] | IC50 [4] | IC50 (Cathepsin G) | IC50 [5]

CCC1=C(C)CN(C(=O)NCCc2ccc(S(=O)(=O)NC(=O)N[C@H]3CC[C@H](C)CC3)cc2)C1=O [GLIMEPIRIDE]
Not Active: IC50 [1] | IC50 (Vasopressin V1a receptor) | IC50 [2] | Ki [2] | IC50 [3] | IC50 [4] | IC50 (Cathepsin G) | IC50 [5]

Nc1cc(-c2ccncc2)c[nH]c1=O [INAMRINONE]
Not Active: IC50 [1] | IC50 (Vasopressin V1a receptor) | IC50 [2] | Ki [2] | IC50 [3] | IC50 [4] | IC50 (Cathepsin G) | IC50 [5]

CCCCC1=NC2(CCCC2)C(=O)N1Cc1ccc(-c2ccccc2-c2nnn[nH]2)cc1 [IRBESARTAN]
Not Active: IC50 [1] | IC50 (Vasopressin V1a receptor) | IC50 [2] | Ki [2] | IC50 [3] | IC50 [4] | IC50 (Cathepsin G) | IC50 [5]

CN1CCC(=C2c3ccccc3CC(=O)c3sccc32)CC1 [KETOTIFEN]
Not Active: IC50 [1] | IC50 (Vasopressin V1a receptor) | IC50 [2] | Ki [2] | IC50 [3] | IC50 [4] | IC50 (Cathepsin G) | IC50 [5]

N[C@@H](Cn1ccc(=O)c(O)c1)C(=O)O [L-MIMOSINE]
Not Active: IC50 [1] | IC50 (Vasopressin V1a receptor) | IC50 [2] | Ki [2] | IC50 [3] | IC50 [4] | IC50 (Cathepsin G) | IC50 [5]
